In ChEMBL document CHEMBL6096718, “Discovery of Rezatapopt (PC14586), a First-in-Class, Small-Molecule Reactivator of p53 Y220C Mutant in Development” (ACS Med Chem Lett, 2025):

What follows are compounds tested on Cellular tumor antigen p53 (Homo sapiens), P04637 [Y220C] (assay: Binding affinity to recombinant His-tagged p53 Y220C mutant DNA binding domain (94 to 312 residues) (unknown origin) assessed as induction of biotin-labeled consensus DNA binding by measuring […] concentration required to increase DNA binding incubated for 48 mins by TR-FRET assay). Conditions: filed as activator.

| EC150 | SMILES |
| --- | --- |
| 8 nM | COc1cc(S(C)(=O)=O)ccc1NCC#Cc1cc2c(N[C@@H]3CCN(C)C[C@@H]3F)cccc2n1CC(F)(F)F |
| 20 nM | COc1cc(S(C)(=O)=O)ccc1NCC#Cc1cc2c(N[C@H]3CCN(C)C[C@H]3F)cccc2n1CC(F)(F)F |
| 9 nM | COc1cc(S(C)(=O)=O)ccc1NCC#Cc1cc2c(N[C@@H]3CCN(C)C[C@@H]3F)cccc2n1CC(F)(F)F (racemic) |
| 20 nM | COc1cc(S(C)(=O)=O)ccc1NCC#Cc1cc2c(N[C@@H]3CCN(C)C[C@H]3F)cccc2n1CC(F)(F)F (racemic) |
